pIC50: −log10 of the molar value. Activity calls are given as the source filed them. The calls are words filed in the database; no cut-off is given here.
Tests used:
Endonuclease 8-like 1 [1] = molecular target: T1, Endonuclease 8-like 1 (Homo sapiens, UniProt Q96FI4); assay: Inhibition of NEIL1 (unknown origin) assessed as remaining enzyme activity at 50 uM using Sp/Gh substrate incubated for 40 mins by TAMRA fluorescence-based assay
[2] = molecular target: T2, Endonuclease III-like protein 1 (Homo sapiens) (UniProt P78549); assay: Inhibition of NTH1 (unknown origin) assessed as remaining enzyme activity at 50 uM incubated for 40 mins by TAMRA fluorescence-based assay
T2 sequence (whole entry): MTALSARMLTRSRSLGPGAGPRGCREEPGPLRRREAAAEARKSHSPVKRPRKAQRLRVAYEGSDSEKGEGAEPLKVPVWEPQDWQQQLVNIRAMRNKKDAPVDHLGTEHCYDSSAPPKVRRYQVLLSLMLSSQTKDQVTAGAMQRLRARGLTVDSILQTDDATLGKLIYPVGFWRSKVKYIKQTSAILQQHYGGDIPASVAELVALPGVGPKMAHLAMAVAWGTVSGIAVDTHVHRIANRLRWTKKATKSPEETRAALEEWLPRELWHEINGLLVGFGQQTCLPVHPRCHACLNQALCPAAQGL

[3] = molecular target: T3, Formamidopyrimidine-DNA glycosylase (Escherichia coli (strain K12)) (UniProt P05523); assay: Inhibition of Escherichia coli FPG assessed as remaining enzyme activity at 50 uM using 8-oxo-Gua substrate incubated for 10 mins by TAMRA fluorescence-based assay
T3 sequence (whole entry): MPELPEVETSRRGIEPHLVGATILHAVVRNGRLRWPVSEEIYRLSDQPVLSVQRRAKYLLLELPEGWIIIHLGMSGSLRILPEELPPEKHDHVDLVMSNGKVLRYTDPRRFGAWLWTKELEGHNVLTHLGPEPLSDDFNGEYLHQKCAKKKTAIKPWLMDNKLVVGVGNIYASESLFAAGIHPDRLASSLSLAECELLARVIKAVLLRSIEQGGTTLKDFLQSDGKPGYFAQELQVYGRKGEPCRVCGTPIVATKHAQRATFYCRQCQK

[4] = Binding affinity to duplex DNA (unknown origin) assessed as induction of DNA intercalation at 50 uM incubated for 30 mins by gel electrophoresis
N-glycosylase/DNA lyase [5] = molecular target: T4, N-glycosylase/DNA lyase (Homo sapiens, UniProt O15527); assay: Inhibition of human OGG1 binding to 8-oxo-Gua substrate using compound pre-incubated with enzyme for 5 to 10 mins before substrate addition and further incubated for 5 mins by native gel electrophoresis based by gel-shift assay
T4 sequence (O15527 whole entry): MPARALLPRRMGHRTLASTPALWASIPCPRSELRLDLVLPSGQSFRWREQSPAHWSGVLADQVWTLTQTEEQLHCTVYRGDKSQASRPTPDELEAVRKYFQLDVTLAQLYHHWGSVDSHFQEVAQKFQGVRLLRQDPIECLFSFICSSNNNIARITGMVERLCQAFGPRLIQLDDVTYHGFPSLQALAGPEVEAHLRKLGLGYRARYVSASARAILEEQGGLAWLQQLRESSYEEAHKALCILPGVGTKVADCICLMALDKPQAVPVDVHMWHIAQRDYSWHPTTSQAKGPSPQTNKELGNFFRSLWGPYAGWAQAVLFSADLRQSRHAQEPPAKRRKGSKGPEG

N-glycosylase/DNA lyase [6] = molecular target: T4, N-glycosylase/DNA lyase; assay: Inhibition of human OGG1 assessed as reduction in AP lyase activity using AP-containing substrate
N-glycosylase/DNA lyase [7] = molecular target: T4, N-glycosylase/DNA lyase; assay: Inhibition of human OGG1 assessed as reduction in free 8-oxo-Gua release using gamma-irradiated calf thymus DNA substrate incubated for 1 hr by GC-MS/MS assay
N-glycosylase/DNA lyase [8] = molecular target: T4, N-glycosylase/DNA lyase; assay: Inhibition of human OGG1 assessed as reduction in free Inhibition of human OGG1 assessed as reduction in free FapyGua release using gamma-irradiated calf thymus DNA substrate incubated for 1 hr by GC-MS/MS assay
Endonuclease 8-like 1 [9] = molecular target: T1, Endonuclease 8-like 1; assay: Inhibition of NEIL1 (unknown origin) using Sp/Gh substrate incubated for 40 mins by TAMRA fluorescence-based assay
[10] = molecular target: T5, Endonuclease III-like protein 1 (Homo sapiens, UniProt P78549); assay: Inhibition of NTH1 (unknown origin) incubated for 40 mins by TAMRA fluorescence-based assay
T5 sequence (P78549 whole entry): T2 sequence (whole entry)

[11] = molecular target: T6, Formamidopyrimidine-DNA glycosylase (Escherichia coli (strain K12), UniProt P05523); assay: Inhibition of Escherichia coli FPG using 8-oxo-Gua substrate incubated for 10 mins by TAMRA fluorescence-based assay
T6 sequence (P05523 whole entry): T3 sequence (whole entry)

Homo sapiens [12] = organism: Homo sapiens; assay: Selectivity index, ratio of IC50 for inhibition of NEIL1 (unknown origin) using Sp/Gh substrate incubated for 40 mins by TAMRA fluorescence-based assay to IC50 for inhibition of human OGG1 incubated for 30 mins using 8-oxo-Gua-containing substrate by TAMRA fluorescence-based assay
Homo sapiens [13] = organism: Homo sapiens; assay: Selectivity index, ratio of IC50 for inhibition of NTH1 (unknown origin) incubated for 40 mins by TAMRA fluorescence-based assay to IC50 for inhibition of human OGG1 incubated for 30 mins using 8-oxo-Gua-containing substrate by TAMRA fluorescence-based assay
[14] = Selectivity index, ratio of IC50 for inhibition of Escherichia coli FPG using 8-oxo-Gua substrate incubated for 10 mins by TAMRA fluorescence-based assay to IC50 for inhibition of human OGG1 incubated for 30 mins using 8-oxo-Gua-containing substrate by TAMRA fluorescence-based assay
Endonuclease 8-like 1 [15] = molecular target: T1, Endonuclease 8-like 1; assay: Inhibition of NEIL1 (unknown origin) assessed as effect on DNA lesions per 10^6 DNA bases using FapyAde substrate incubated for 1 hr by GC-MS/MS assay
Endonuclease 8-like 1 [16] = molecular target: T1, Endonuclease 8-like 1; assay: Inhibition of NEIL1 (unknown origin) assessed as effect on DNA lesions per 10^6 DNA bases using FapyGua substrate incubated for 1 hr by GC-MS/MS assay
Endonuclease 8-like 1 [17] = molecular target: T1, Endonuclease 8-like 1; assay: Inhibition of NEIL1 (unknown origin) assessed as effect on DNA lesions per 10^6 DNA bases using 5-OH-5-MeHyd substrate incubated for 1 hr by GC-MS/MS assay
[18] = molecular target: T2, Endonuclease III-like protein 1 (Homo sapiens); assay: Inhibition of NTH1 (unknown origin) assessed as effect on DNA lesions per 10^6 DNA bases using FapyAde substrate incubated for 1 hr by GC-MS/MS assay
[19] = molecular target: T2, Endonuclease III-like protein 1 (Homo sapiens); assay: Inhibition of NTH1 (unknown origin) assessed as effect on DNA lesions per 10^6 DNA bases using FapyGua substrate incubated for 1 hr by GC-MS/MS assay
[20] = molecular target: T2, Endonuclease III-like protein 1 (Homo sapiens); assay: Inhibition of NTH1 (unknown origin) assessed as effect on DNA lesions per 10^6 DNA bases using 5-OH-5-MeHyd substrate incubated for 1 hr by GC-MS/MS assay
[21] = molecular target: T2, Endonuclease III-like protein 1 (Homo sapiens); assay: Inhibition of NTH1 (unknown origin) assessed as effect on DNA lesions per 10^6 DNA bases using thymine glycol substrate incubated for 1 hr by GC-MS/MS assay
[22] = molecular target: T2, Endonuclease III-like protein 1 (Homo sapiens); assay: Inhibition of NTH1 (unknown origin) assessed as effect on DNA lesions per 10^6 DNA bases using 5-hydroxycytosine substrate incubated for 1 hr by GC-MS/MS assay
N-glycosylase/DNA lyase [23] = molecular target: T4, N-glycosylase/DNA lyase; assay: Inhibition of human OGG1 assessed as protection against NaOH-mediated strand cleavage using AP-containing substrate; parameters: scale not given: the % may be the effect or the level left
[24] = molecular target: T3, Formamidopyrimidine-DNA glycosylase (Escherichia coli (strain K12)); assay: Inhibition of Escherichia coli FPG assessed as reduction in enzyme-mediated incision using compound pre-incubated with 8-oxo-Gua substrate for 30 mins at 37 degC followed by enzyme addition
[25] = molecular target: T3, Formamidopyrimidine-DNA glycosylase (Escherichia coli (strain K12)); assay: Inhibition of Escherichia coli FPG assessed as reduction in enzyme-mediated incision using compound pre-incubated with AP-site containing DNA substrate for 30 mins at 37 degC followed by enzyme addition
N-glycosylase/DNA lyase [26] = molecular target: T4, N-glycosylase/DNA lyase; assay: Inhibition of human OGG1 catalytic activity assessed as reduction trapping of substrates at 10 uM using 8-oxo-Gua substrate in presence of sodium cyno-borohydride by gel electrophoresis method
N-glycosylase/DNA lyase [27] = molecular target: T4, N-glycosylase/DNA lyase; assay: Inhibition of human OGG1 catalytic activity assessed as reduction trapping of substrates at 10 uM using AP site containing substrate in presence of sodium cyno-borohydride by gel electrophoresis method
N-glycosylase/DNA lyase [28] = molecular target: T4, N-glycosylase/DNA lyase; assay: Inhibition of human OGG1 catalytic activity assessed as reduction trapping of substrates using 8-oxo-Gua substrate by measuring concentration of compound needed to reduce borohydride trapping by 50% in presence of sodium cyno-borohydride by gel electrophoresis method
N-glycosylase/DNA lyase [29] = molecular target: T4, N-glycosylase/DNA lyase; assay: Inhibition of human OGG1 catalytic activity assessed as reduction trapping of substrates using AP site containing substrate by measuring concentration of compound needed to reduce borohydride trapping by 50% in presence of sodium cyno-borohydride by gel electrophoresis method

T1 sequence (Q96FI4 whole entry): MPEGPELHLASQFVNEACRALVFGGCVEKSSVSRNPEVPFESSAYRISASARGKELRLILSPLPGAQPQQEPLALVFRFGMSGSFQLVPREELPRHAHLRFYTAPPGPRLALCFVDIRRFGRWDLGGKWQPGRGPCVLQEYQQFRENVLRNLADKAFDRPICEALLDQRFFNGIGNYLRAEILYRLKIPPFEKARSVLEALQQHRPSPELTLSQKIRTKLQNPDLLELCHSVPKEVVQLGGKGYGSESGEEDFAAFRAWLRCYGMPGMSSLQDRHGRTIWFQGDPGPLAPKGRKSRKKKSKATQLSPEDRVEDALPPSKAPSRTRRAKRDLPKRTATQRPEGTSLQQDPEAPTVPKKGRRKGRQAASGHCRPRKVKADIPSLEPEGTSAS

O=C(CCNNC(=O)c1ccncc1)NCc1ccccc1
Activity (Endonuclease 8-like 1 [1]): 96.4%
Activity [2]: 108%

NNC(=O)COc1cccc2ccccc12
Activity (Endonuclease 8-like 1 [1]): 78.7%
Activity [2]: 53.6%
Activity [3]: 88.5%
Activity [4]: inactive

C=CCC/C(C)=N\NC(=O)c1cccc(Br)c1
Activity (Endonuclease 8-like 1 [1]): 93.5%
Activity [2]: 90.6%
Activity [3]: 78.8%
Activity [4]: inactive

CCCC/C(C)=N\NC(=O)c1cccc(Br)c1
Activity (Endonuclease 8-like 1 [1]): 101%
Activity [2]: 92.6%
Activity [3]: 90.9%
Activity [4]: inactive

O=C(O)C1=CC(=C(c2ccc(O)c(C(=O)O)c2)c2ccc(O)c(C(=O)O)c2)C=CC1=O
inhibition (N-glycosylase/DNA lyase [5]): Active

Cc1cc(OCC(=O)NN)cc(C)c1Cl
Activity (Endonuclease 8-like 1 [1]): 83.7%
Activity [2]: 75.1%
Activity [3]: 95%
Activity [4]: inactive

CC[n+]1c(-c2ccccc2)c2cc(N)ccc2c2ccc(N)cc21
Activity [4]: Active

NNC(=O)c1sc2cccc(Cl)c2c1Cl
Activity (Endonuclease 8-like 1 [1]): 84.6%
Activity [2]: 63.1%
Activity [3]: 91.7%
inhibition (N-glycosylase/DNA lyase [6]): Active
inhibition (N-glycosylase/DNA lyase [7]): Active
inhibition (N-glycosylase/DNA lyase [8]): Active
pIC50 (Endonuclease 8-like 1 [9]): < 4.30
pIC50 [10]: < 4.30
pIC50 [11]: < 4.30
Ratio IC50 (Homo sapiens [12]): > 200
Ratio IC50 (Homo sapiens [13]): > 200
Ratio IC50 [14]: > 200
inhibition (Endonuclease 8-like 1 [15]): inactive
inhibition (Endonuclease 8-like 1 [16]): inactive
inhibition (Endonuclease 8-like 1 [17]): inactive
inhibition [18]: inactive
inhibition [19]: inactive
inhibition [20]: inactive
inhibition [21]: inactive
inhibition [22]: inactive
Activity [4]: inactive
Activity (N-glycosylase/DNA lyase [23]): 2%
inhibition [24]: inactive
inhibition [25]: inactive
inhibition (N-glycosylase/DNA lyase [5]): inactive
inhibition (N-glycosylase/DNA lyase [26]): Active
inhibition (N-glycosylase/DNA lyase [27]): Active
pIC50 (N-glycosylase/DNA lyase [28]): 5.99
pIC50 (N-glycosylase/DNA lyase [29]): 6.13

Cc1cc(C(=O)NNCc2ccccc2)no1
Activity (Endonuclease 8-like 1 [1]): 93.3%
Activity [2]: 105%
inhibition (N-glycosylase/DNA lyase [6]): inactive
inhibition (N-glycosylase/DNA lyase [7]): inactive
inhibition (N-glycosylase/DNA lyase [8]): inactive

Reference: ChEMBL document CHEMBL4421727, “Small molecule inhibitors of 8-oxoguanine dna glycosylase-1 (ogg1)” (2017)
